Data: US20240415914A1, “Water Dispersible Cannabinoid Compositions” (priority 2021, published 2024)
Like-named read-outs stand apart in the source and are kept apart here.

Experiments:
[1] = Stability of cannabinoid and Vitamin E components of Beverage 2 (AB Red) stored at 8° C. and 21-25° C., LCMSMS over 570 days
Method: The LCMSMS was calibrated for 0-50 ng/ml cannabinoids with the same resin material used in the preparation of the concentrates. At each time period, 100 μml of beverage was diluted with 10 ml of methanol and injected into the LCMSMS for analysis.

[2] = format: physicochemical; settings: stored at room temperature (21-25° C.)
Method: At each time period, 0.05 g of powder was dissolved in 10 ml-15 of ethanol, diluted to fall within the analytical range, and injected into the LCMSMS for analysis.

Cc1c(C)c2c(c(C)c1OC(=O)CCC(=O)O)CC[C@@](C)(CCC[C@H](C)CCC[C@H](C)CCCC(C)C)O2 [α-Tocopheryl succinate]
11.6 µg/mL: Stability of Vitamin Es in AB Red ([1]; 8° C., 29 days) | Stability of Vitamin Es in AB Red ([1]; 8° C., 240 days) | Stability of Vitamin Es in AB Red ([1]; 21-25° C., 15 days) | Stability of Vitamin Es in AB Red ([1]; 21-25° C., 16 days) | Stability of Vitamin Es in AB Red ([1]; 21-25° C., 22 days) | Stability of Vitamin Es in AB Red ([1]; 21-25° C., 90 days) | Stability of Vitamin Es in AB Red ([1]; 21-25° C., 210 days) | Stability of Vitamin Es in AB Red ([1]; 21-25° C., 240 days)
1.83 mg/g powder: Stability in Powder Concentrate (content by LCMSMS) ([2]; day 5) | Stability in Powder Concentrate (content by LCMSMS) ([2]; day 16) | Stability in Powder Concentrate (content by LCMSMS) ([2]; day 90) | Stability in Powder Concentrate (content by LCMSMS) ([2]; day 120) | Stability in Powder Concentrate (content by LCMSMS) ([2]; day 330)
12.1 µg/mL: Stability of Vitamin Es in AB Red ([1]; 8° C., 11 days) | Stability of Vitamin Es in AB Red ([1]; 21-25° C., 18 days) | Stability of Vitamin Es in AB Red ([1]; 21-25° C., 26 days) | Stability of Vitamin Es in AB Red ([1]; 21-25° C., 30 days)
11.0 µg/mL: Stability of Vitamin Es in AB Red ([1]; 8° C., 420 days) | Stability of Vitamin Es in AB Red ([1]; 21-25° C., 270 days) | Stability of Vitamin Es in AB Red ([1]; 21-25° C., 420 days)
11.8 µg/mL: Stability of Vitamin Es in AB Red ([1]; 8° C., 9 days)
11.9 µg/mL: Stability of Vitamin Es in AB Red ([1]; 8° C., 18 days) | Stability of Vitamin Es in AB Red ([1]; 8° C., 22 days) | Stability of Vitamin Es in AB Red ([1]; 21-25° C., 3 days) | Stability of Vitamin Es in AB Red ([1]; 21-25° C., 5 days) | Stability of Vitamin Es in AB Red ([1]; 21-25° C., 19 days) | Stability of Vitamin Es in AB Red ([1]; 21-25° C., 25 days)
11.7 µg/mL: Stability of Vitamin Es in AB Red ([1]; 8° C., 1 days) | Stability of Vitamin Es in AB Red ([1]; 8° C., 2 days) | Stability of Vitamin Es in AB Red ([1]; 8° C., 3 days) | Stability of Vitamin Es in AB Red ([1]; 8° C., 19 days) | Stability of Vitamin Es in AB Red ([1]; 8° C., 330 days) | Stability of Vitamin Es in AB Red ([1]; 21-25° C., 9 days) | Stability of Vitamin Es in AB Red ([1]; 21-25° C., 60 days)
12.3 µg/mL: Stability of Vitamin Es in AB Red ([1]; 21-25° C., 180 days)
11.2 µg/mL: Stability of Vitamin Es in AB Red ([1]; 8° C., 300 days) | Stability of Vitamin Es in AB Red ([1]; 8° C., 390 days) | Stability of Vitamin Es in AB Red ([1]; 8° C., 450 days) | Stability of Vitamin Es in AB Red ([1]; 21-25° C., 450 days)
1.87 mg/g powder: Stability in Powder Concentrate (content by LCMSMS) ([2]; day 10) | Stability in Powder Concentrate (content by LCMSMS) ([2]; day 12) | Stability in Powder Concentrate (content by LCMSMS) ([2]; day 15) | Stability in Powder Concentrate (content by LCMSMS) ([2]; day 29) | Stability in Powder Concentrate (content by LCMSMS) ([2]; day 270) | Stability in Powder Concentrate (content by LCMSMS) ([2]; day 390)
1.85 mg/g powder: Stability in Powder Concentrate (content by LCMSMS) ([2]; day 19)
10.9 µg/mL: Stability of Vitamin Es in AB Red ([1]; 8° C., 480 days) | Stability of Vitamin Es in AB Red ([1]; 8° C., 540 days)
10.3 µg/mL: Stability of Vitamin Es in AB Red ([1]; 21-25° C., 540 days)
1.84 mg/g powder: Stability in Powder Concentrate (content by LCMSMS) ([2]; day 240) | Stability in Powder Concentrate (content by LCMSMS) ([2]; day 300)
1.76 mg/g powder: Stability in Powder Concentrate (content by LCMSMS) ([2]; day 26) | Stability in Powder Concentrate (content by LCMSMS) ([2]; day 480) | Stability in Powder Concentrate (content by LCMSMS) ([2]; day 510)
10.6 µg/mL: Stability of Vitamin Es in AB Red ([1]; 8° C., 570 days) | Stability of Vitamin Es in AB Red ([1]; 21-25° C., 510 days) | Stability of Vitamin Es in AB Red ([1]; 21-25° C., 570 days)
11.4 µg/mL: Stability of Vitamin Es in AB Red ([1]; 8° C., 60 days) | Stability of Vitamin Es in AB Red ([1]; 8° C., 180 days) | Stability of Vitamin Es in AB Red ([1]; 8° C., 210 days) | Stability of Vitamin Es in AB Red ([1]; 21-25° C., 150 days) | Stability of Vitamin Es in AB Red ([1]; 21-25° C., 300 days) | Stability of Vitamin Es in AB Red ([1]; 21-25° C., 330 days)
1.78 mg/g powder: Stability in Powder Concentrate (content by LCMSMS) ([2]; day 22)
12.4 µg/mL: Stability of Vitamin Es in AB Red ([1]; 8° C., 17 days) | Stability of Vitamin Es in AB Red ([1]; 8° C., 30 days) | Stability of Vitamin Es in AB Red ([1]; 21-25° C., 12 days) | Stability of Vitamin Es in AB Red ([1]; 21-25° C., 24 days) | Stability of Vitamin Es in AB Red ([1]; 21-25° C., 29 days)
1.81 mg/g powder: Stability in Powder Concentrate (content by LCMSMS) ([2]; day 1) | Stability in Powder Concentrate (content by LCMSMS) ([2]; day 2) | Stability in Powder Concentrate (content by LCMSMS) ([2]; day 3)
12.6 µg/mL: Stability of Vitamin Es in AB Red ([1]; 8° C., 8 days) | Stability of Vitamin Es in AB Red ([1]; 8° C., 10 days) | Stability of Vitamin Es in AB Red ([1]; 21-25° C., 17 days)
1.79 mg/g powder: Stability in Powder Concentrate (content by LCMSMS) ([2]; day 360)
12.7 µg/mL: Stability of Vitamin Es in AB Red ([1]; 8° C., 12 days) | Stability of Vitamin Es in AB Red ([1]; 21-25° C., 23 days)
12.0 µg/mL: Stability of Vitamin Es in AB Red ([1]; 8° C., 23 days) | Stability of Vitamin Es in AB Red ([1]; 8° C., 25 days) | Stability of Vitamin Es in AB Red ([1]; 21-25° C., 2 days) | Stability of Vitamin Es in AB Red ([1]; 21-25° C., 8 days) | Stability of Vitamin Es in AB Red ([1]; 21-25° C., 10 days) | Stability of Vitamin Es in AB Red ([1]; 21-25° C., 11 days)
10.8 µg/mL: Stability of Vitamin Es in AB Red ([1]; 8° C., 510 days) | Stability of Vitamin Es in AB Red ([1]; 21-25° C., 390 days)
1.82 mg/g powder: Stability in Powder Concentrate (content by LCMSMS) ([2]; day 0) | Stability in Powder Concentrate (content by LCMSMS) ([2]; day 420)
1.90 mg/g powder: Stability in Powder Concentrate (content by LCMSMS) ([2]; day 8) | Stability in Powder Concentrate (content by LCMSMS) ([2]; day 24) | Stability in Powder Concentrate (content by LCMSMS) ([2]; day 25)
12.5 µg/mL: Stability of Vitamin Es in AB Red ([1]; 8° C., 0 days) | Stability of Vitamin Es in AB Red ([1]; 8° C., 15 days) | Stability of Vitamin Es in AB Red ([1]; 8° C., 26 days) | Stability of Vitamin Es in AB Red ([1]; 21-25° C., 0 days) | Stability of Vitamin Es in AB Red ([1]; 21-25° C., 1 days)
1.88 mg/g powder: Stability in Powder Concentrate (content by LCMSMS) ([2]; day 17)
1.77 mg/g powder: Stability in Powder Concentrate (content by LCMSMS) ([2]; day 18) | Stability in Powder Concentrate (content by LCMSMS) ([2]; day 60) | Stability in Powder Concentrate (content by LCMSMS) ([2]; day 180) | Stability in Powder Concentrate (content by LCMSMS) ([2]; day 570)
1.80 mg/g powder: Stability in Powder Concentrate (content by LCMSMS) ([2]; day 23) | Stability in Powder Concentrate (content by LCMSMS) ([2]; day 30) | Stability in Powder Concentrate (content by LCMSMS) ([2]; day 210) | Stability in Powder Concentrate (content by LCMSMS) ([2]; day 450) | Stability in Powder Concentrate (content by LCMSMS) ([2]; day 540)
10.4 µg/mL: Stability of Vitamin Es in AB Red ([1]; 21-25° C., 480 days)
1.89 mg/g powder: Stability in Powder Concentrate (content by LCMSMS) ([2]; day 9) | Stability in Powder Concentrate (content by LCMSMS) ([2]; day 11) | Stability in Powder Concentrate (content by LCMSMS) ([2]; day 150)
11.5 µg/mL: Stability of Vitamin Es in AB Red ([1]; 8° C., 5 days) | Stability of Vitamin Es in AB Red ([1]; 8° C., 16 days) | Stability of Vitamin Es in AB Red ([1]; 8° C., 90 days) | Stability of Vitamin Es in AB Red ([1]; 8° C., 150 days) | Stability of Vitamin Es in AB Red ([1]; 8° C., 270 days) | Stability of Vitamin Es in AB Red ([1]; 21-25° C., 120 days)
12.2 µg/mL: Stability of Vitamin Es in AB Red ([1]; 8° C., 24 days) | Stability of Vitamin Es in AB Red ([1]; 8° C., 120 days)
